The GI50 is the concentration that inhibits growth by half. As usually defined, the IC50 is the midpoint of a concentration-inhibition curve.

Data on six compounds can be found in ChEMBL document CHEMBL5576112, “Synthesis, in silico, in vitro evaluation of furanyl- and thiophenyl-3-phenyl-1H-indole-2-carbohydrazide derivatives as tubulin inhibitors and anticancer agents” (RSC Med Chem, 2024).

The species named for data set [1] is Sus scrofa. In words: Inhibition of porcine brain tubulin polymerization assessed as microtubule destabilization by measuring relative fluorescence unit at 10 uM measured at 60 secs interval for 60 mins in presence of GTP by fluorescence assay.
Data set [2] relates to COLO 205. In words: Growth inhibition of human COLO 205 cells measured after 48 hrs by sulforhodamine B assay. Format: functional. Particulars: for CC50: read-out: LC50 (the source's name).
Data set [3] has as its system SK-MEL-5. In words: Growth inhibition of human SK-MEL-5 cells measured after 48 hrs by sulforhodamine B assay. Format: functional. As to conditions: for CC50: read-out: LC50 (the source's name). In general terms: The SRB assay estimates cell density from bound dye.
The test system of data set [4] is SF-295. In words: Growth inhibition of human SF-295 cells measured after 48 hrs by sulforhodamine B assay. Format: functional. Particulars: read-out: LC50 (the source's name).
Data set [5] concerns COLO 205. In words: Growth inhibition of human COLO 205 cells at 10 uM measured after 48 hrs by sulforhodamine B assay. The data set is classed as functional, cell-based.
The subject of data set [6] is SK-MEL-5. In words: Growth inhibition of human SK-MEL-5 cells at 10 uM measured after 48 hrs by sulforhodamine B assay. Format: functional, cell-based.
Data set [7] has as its system SF-295. In words: Growth inhibition of human SF-295 cells at 10 uM measured after 48 hrs by sulforhodamine B assay. The data set is classed as functional, cell-based.
Data set [8] deals with NCI-H522. In words: Growth inhibition of human NCI-H522 cells measured after 48 hrs by sulforhodamine B assay. Format: functional. Particulars: for CC50: read-out: LC50 (the source's name).
Data set [9] has as its system SF-539. In words: Growth inhibition of human SF-539 cells measured after 48 hrs by sulforhodamine B assay. Format: functional. Particulars: for CC50: read-out: LC50 (the source's name).
For data set [10], the system named is NCI/ADR-RES. In words: Growth inhibition of human NCI-ADR-RES cells measured after 48 hrs by sulforhodamine B assay. Format: functional. Particulars: for CC50: read-out: LC50 (the source's name).
The subject of data set [11] is NCI-H522. In words: Growth inhibition of human NCI-H522 cells at 10 uM measured after 48 hrs by sulforhodamine B assay. The data set is classed as functional, cell-based.
The subject of data set [12] is SF-539. In words: Growth inhibition of human SF-539 cells at 10 uM measured after 48 hrs by sulforhodamine B assay. Format: functional, cell-based.
Data set [13] deals with NCI/ADR-RES. In words: Growth inhibition of human NCI-ADR-RES cells at 10 uM measured after 48 hrs by sulforhodamine B assay. The data set is classed as functional, cell-based.
For data set [14], the system named is MDA-MB-231. In words: Cell cycle arrest in human MDA-MB-231 cells assessed as accumulation of cells at G0/G1 phase at 10 uM measured after 24 hrs by Muse cell analyzer based assay (reference value: 59.7%). The data set is classed as functional.
The subject of data set [15] is MDA-MB-231. In words: Cell cycle arrest in human MDA-MB-231 cells assessed as accumulation of cells at S phase at 10 uM measured after 24 hrs by Muse cell analyzer based assay (reference value: 12.9%). Format: functional.
Data set [16] concerns MDA-MB-231. In words: Cell cycle arrest in human MDA-MB-231 cells assessed as accumulation of cells at G2/M phase at 10 uM measured after 24 hrs by Muse cell analyzer based assay (reference value: 27.3%). The data set is classed as functional.
The subject of data set [17] is MDA-MB-231. In words: Induction of morphological changes in human MDA-MB-231 cells assessed as loss of cell polarity at 10 uM measured after 24 hrs. Format: functional, cell-based.
Data set [18] deals with MDA-MB-231. In words: Induction of apoptosis in human MDA-MB-231 cells assessed as viable cells at 10 uM measured after 24 hrs by Annexin V/7-AAD double staining based muse cell analyzer method (reference value: 96.21%). The data set is classed as functional. Particulars: read-out: Activity.
In data set [19] the test system is MDA-MB-231. In words: Induction of apoptosis in human MDA-MB-231 cells assessed as early apoptotic cells at 10 uM measured after 24 hrs by Annexin V/7-AAD double staining based muse cell analyzer method (reference value: 1.64%). The data set is classed as functional.
Data set [20] deals with MDA-MB-231. In words: Induction of apoptosis in human MDA-MB-231 cells assessed as late apoptotic cells at 10 uM measured after 24 hrs by Annexin V/7-AAD double staining based muse cell analyzer method (reference value: 1.44%). Format: functional.
The subject of data set [21] is MDA-MB-231. In words: Induction of apoptosis in human MDA-MB-231 cells assessed as necrotic cells at 10 uM measured after 24 hrs by Annexin V/7-AAD double staining based muse cell analyzer method (reference value: 0.72%). The data set is classed as functional.
The nature of data set [22]: Cytotoxicity against human HaCaT cells assessed as reduction in cell viability measured after 48 hrs by MTT assay. Format: toxicity, cell-based. A general note: Formazan colour is commonly taken as a measure of viable cells.
Data set [23] relates to MDA-MB-231. In words: Cytotoxicity against human MDA-MB-231 cells assessed as reduction in cell viability measured after 48 hrs by MTT assay. The data set is classed as functional, cell-based. Particulars: MDA-MB-231, 48 h.
In data set [24] the test system is MDA-MB-435. In words: Growth inhibition of human MDA-MB-435 cells measured after 48 hrs by sulforhodamine B assay. Format: functional. Particulars: for CC50: read-out: LC50 (the source's name).
The test system of data set [25] is MDA-MB-435. In words: Growth inhibition of human MDA-MB-435 cells at 10 uM measured after 48 hrs by sulforhodamine B assay. Format: functional, cell-based.
For data set [26], the species on record is Sus scrofa. In words: Inhibition of porcine brain tubulin polymerization assessed as microtubule destabilization at 10 uM measured at 60 secs interval for 60 mins in presence of GTP by fluorescence assay.

Activity calls are given as the source filed them. The rule behind the calls is not given here. A value given as a limit tells only on which side of the number the result lay.

`O=C(N/N=C/c1ccc(-c2ccc(O)cc2)o1)c1[nH]c2ccc(Br)cc2c1-c1ccccc1`: in the data set listed under Sus scrofa [1], the RFU turned out to be 45 a.u. In addition, the CC50 stood at 7210 nM in the data set on COLO 205 [2], 4140 nM in the data set on SK-MEL-5 [3] and 8090 nM in the data set on SF-295 [4]. The “growth inhibition (GI)” value in the data set with COLO 205 [5], in the data set with SK-MEL-5 [6] and in the data set with SF-295 [7] was “Active” each time.
In the case of `O=C(N/N=C/c1ccc(Br)s1)c1[nH]c2ccc(Br)cc2c1-c1ccccc1`, the GI50 in the data set with NCI-H522 [8], in the data set with SF-539 [9] and with NCI/ADR-RES [10] was less than 100 nM throughout. The CC50 in the data set on NCI-H522 [8], in the data set with SF-539 [9] and in the data set on NCI/ADR-RES [10] was greater than 10000 nM throughout. Further, the “growth inhibition (GI)” value with NCI-H522 [11], with SF-539 [12] and in the data set with NCI/ADR-RES [13] was “Active” each time.
Take `COc1ccsc1/C=N/NC(=O)c1[nH]c2ccc(Br)cc2c1-c1ccccc1`: the RFU in the data set listed under Sus scrofa [1] came to 20 a.u. Besides, the Activity in the data set on MDA-MB-231 [14] is reported as 19.6%; in the data set with MDA-MB-231 [15], 10.2%; in the data set with MDA-MB-231 [16] it was 70%; with MDA-MB-231 [19], 3.55%; in the data set on MDA-MB-231 [20], 5.7%; with MDA-MB-231 [21], 4.98%. The outcome with MDA-MB-231 [17] was Active. Moreover, the viability at 10 µM in the data set with MDA-MB-231 [18] came to 85.8%. Further, the IC50 at 48 h in data set [22] worked out at 540 nM. Moreover, the IC50 in the data set with MDA-MB-231 [23] turned out to be 4130 nM. In addition, the GI50 in the data set with NCI-H522 [8] came out at 213 nM; in the data set with COLO 205 [2], 435 nM; in the data set on MDA-MB-435 [24], 240 nM; in the data set on SK-MEL-5 [3], 321 nM. The CC50 with NCI-H522 [8] was 8560 nM; with COLO 205 [2], 5920 nM; in the data set on MDA-MB-435 [24], greater than 100000 nM; in the data set on SK-MEL-5 [3], greater than 100000 nM. Also, the “growth inhibition (GI)” value in the data set on NCI-H522 [11], in the data set on COLO 205 [5], in the data set with MDA-MB-435 [25] and with SK-MEL-5 [6] was “Active” each time.
For `COc1ccc(/C=N/NC(=O)c2[nH]c3ccc(Br)cc3c2-c2ccccc2)s1`, in the data set filed under Sus scrofa [1], the RFU worked out at 45 a.u. Further, the inhibition result in the data set filed under Sus scrofa [26] is “inactive”. The Activity is 17.9% in the data set with MDA-MB-231 [14]; 11.2% in the data set with MDA-MB-231 [15]; 70.7% in the data set on MDA-MB-231 [16]; 3.48% in the data set with MDA-MB-231 [19]; 6.21% with MDA-MB-231 [20]; 5.13% in the data set with MDA-MB-231 [21]. Moreover, the outcome with MDA-MB-231 [17] was Active. Besides, in the data set with MDA-MB-231 [18], the viability at 10 µM was determined as 85.2%. Besides, the IC50 at 48 h in data set [22] is 340 nM. In addition, the IC50 with MDA-MB-231 [23] was determined as 560 nM. For the same compound, the GI50 was found to be 19.3 nM with NCI-H522 [8], 191 nM in the data set on COLO 205 [2], 25.3 nM with MDA-MB-435 [24] and 52.3 nM in the data set on SK-MEL-5 [3]. For the same compound, the CC50 in the data set on NCI-H522 [8] is greater than 100000 nM; in the data set on COLO 205 [2], 719 nM; with MDA-MB-435 [24] it was greater than 100000 nM; with SK-MEL-5 [3] it was greater than 100000 nM. Moreover, the “growth inhibition (GI)” value with NCI-H522 [11], with COLO 205 [5], in the data set on MDA-MB-435 [25] and in the data set with SK-MEL-5 [6] was “Active” throughout.
Consider `O=C(N/N=C/c1ccc(Cl)s1)c1[nH]c2ccc(Br)cc2c1-c1ccccc1`, for which the GI50 in the data set with NCI-H522 [8], in the data set on SF-539 [9] and with NCI/ADR-RES [10] was less than 100 nM each time. For the same compound, the CC50 in the data set with NCI-H522 [8], in the data set on SF-539 [9] and with NCI/ADR-RES [10] was greater than 10000 nM throughout. The “growth inhibition (GI)” value in the data set on NCI-H522 [11], in the data set on SF-539 [12] and in the data set with NCI/ADR-RES [13] was “Active” throughout.
Regarding `COc1csc(/C=N/NC(=O)c2[nH]c3ccc(Br)cc3c2-c2ccccc2)c1`, the inhibition entry in the data set filed under Sus scrofa [26] was “inactive”. Also, the Activity in the data set on MDA-MB-231 [14] was determined as 15.6%; in the data set on MDA-MB-231 [15], 10%; in the data set with MDA-MB-231 [16], 74.5%; in the data set with MDA-MB-231 [19] it was 6.44%; in the data set with MDA-MB-231 [20] it was 20.25%; in the data set with MDA-MB-231 [21] it was 6.61%. Also, the result in the data set with MDA-MB-231 [17] was Active. In addition, in the data set with MDA-MB-231 [18], the viability at 10 µM was 66.7%. Besides, the IC50 at 48 h in data set [22] was 30 nM. Moreover, the IC50 with MDA-MB-231 [23] is 160 nM. Moreover, the GI50 is less than 10 nM in the data set on NCI-H522 [8], 19.1 nM in the data set with COLO 205 [2], 19.1 nM with MDA-MB-435 [24] and 18.6 nM in the data set with SK-MEL-5 [3]. Further, the CC50 was greater than 100000 nM in the data set with NCI-H522 [8], 70.8 nM in the data set with COLO 205 [2], 259 nM in the data set with MDA-MB-435 [24] and 74.9 nM in the data set on SK-MEL-5 [3]. In addition, the “growth inhibition (GI)” value with NCI-H522 [11], with COLO 205 [5], in the data set on MDA-MB-435 [25] and with SK-MEL-5 [6] was “Active” throughout.
